Data taken from patent publication US20250215029A1 (Recludix Pharma, Inc., priority 2022, published 2025).

Key:
[1] = target: T1, Recombinant STAT3 protein (STAT3 (G127-I722)) (Homo sapiens, UniProt P40763); assay: STAT3 Fluorescence Polarization (FP) Assay; assay type: binding; conditions: STAT3 (G127-I722) 25 nM, probe 5-FAM-GpYLPQTV-NH2 2 nM, 45-minute incubation; read-out: STAT3 (FP assay IC50 class)
T1 construct: Recombinant STAT3 protein (STAT3 (G127-I722))
Outline: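 Displacement of a 2 nM 5-FAM-labelled pY peptide (GpYLPQTV) from 25 nM recombinant STAT3 (G127-I722) was monitored by fluorescence polarization. Incubation lasted 45 min at room temperature in pH 7.4 HEPES buffer containing 1% DMSO.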

[2] = target: T2, Recombinant STAT6 protein (STAT6 (W123-T658)) (Homo sapiens, UniProt P42226); assay: STAT6 Fluorescence Polarization (FP) Assay; assay type: binding; conditions: STAT6 (W123-T658) 250 nM, probe 5-FAM-Ap[…]-NH2 2 nM, 45-minute incubation; read-out: STAT6 (FP assay IC50 class)
T2 construct: Recombinant STAT6 protein (STAT6 (W123-T658))
T2 sequence (P42226 123-658): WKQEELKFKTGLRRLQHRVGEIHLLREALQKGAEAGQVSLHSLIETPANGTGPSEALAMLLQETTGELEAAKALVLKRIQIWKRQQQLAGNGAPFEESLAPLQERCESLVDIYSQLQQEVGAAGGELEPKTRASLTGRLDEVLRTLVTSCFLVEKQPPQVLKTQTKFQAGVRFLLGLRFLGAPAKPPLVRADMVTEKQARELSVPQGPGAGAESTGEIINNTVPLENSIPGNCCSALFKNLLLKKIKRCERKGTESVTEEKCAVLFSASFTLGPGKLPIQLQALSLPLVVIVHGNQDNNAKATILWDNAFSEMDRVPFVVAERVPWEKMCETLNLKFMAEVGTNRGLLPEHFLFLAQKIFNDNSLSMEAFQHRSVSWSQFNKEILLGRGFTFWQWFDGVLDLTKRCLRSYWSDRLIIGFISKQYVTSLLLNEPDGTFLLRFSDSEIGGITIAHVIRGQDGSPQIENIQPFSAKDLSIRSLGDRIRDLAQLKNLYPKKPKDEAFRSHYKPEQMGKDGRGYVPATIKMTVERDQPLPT
Outline: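 Serially diluted compounds received a premix of STAT6 (W123-T658, 250 nM) and 5-FAM peptide probe (2 nM) in pH 7.4 HEPES buffer containing DTT and Tween 20. Following 45 min at room temperature, FP was recorded. IC50s were fitted by nonlinear regression; values are binned A (≤300 nM), B (>300-3000 nM), C (>3-30 μM), D (>30 μM).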

T1 sequence (P40763 127-722): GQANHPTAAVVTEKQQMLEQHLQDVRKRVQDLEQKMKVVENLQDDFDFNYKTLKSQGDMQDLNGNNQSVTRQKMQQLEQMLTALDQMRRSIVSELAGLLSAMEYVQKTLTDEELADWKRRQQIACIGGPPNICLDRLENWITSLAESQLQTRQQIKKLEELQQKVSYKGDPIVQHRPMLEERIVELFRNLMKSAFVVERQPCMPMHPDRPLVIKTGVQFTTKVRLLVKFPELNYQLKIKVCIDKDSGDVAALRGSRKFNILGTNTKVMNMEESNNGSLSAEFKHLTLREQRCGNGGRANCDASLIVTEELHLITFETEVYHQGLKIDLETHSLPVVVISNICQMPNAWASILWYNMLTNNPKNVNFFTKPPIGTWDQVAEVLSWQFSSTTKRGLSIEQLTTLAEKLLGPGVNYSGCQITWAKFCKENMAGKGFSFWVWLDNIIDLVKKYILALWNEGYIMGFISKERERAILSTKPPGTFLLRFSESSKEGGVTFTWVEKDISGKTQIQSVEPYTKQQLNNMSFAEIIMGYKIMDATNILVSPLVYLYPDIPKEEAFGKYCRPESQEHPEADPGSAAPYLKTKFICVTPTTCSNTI

| IC50 [1] | IC50 [2] | SMILES |
| --- | --- | --- |
| 1000 to 10000 nM | 0.3 to 3 µM | O=C(N[C@H]1CCCC[C@H]2CC[C@@H](C(=O)N3C(=O)N(c4cccnc4)C(=O)C34CC4)N2C1=O)c1ccc2ccc(CP(=O)(O)O)cc2c1 [Compound 893, ((7-(((3S,6S,10aS)-3-(5,7-dioxo-6-(pyridin-3-yl)-4,6-diazaspiro[2.4]heptane-4-carbonyl)-5-oxodecahydropyrrolo[1,2-a]azocin-6-yl)carbamoyl)naphthalen-2-yl)methyl) phosphonic acid] |
| 1000 to 10000 nM | 0.3 to 3 µM | O=C(N[C@H]1CCCC[C@H]2CC[C@@H](C(=O)N3CC(c4ccccc4)CC34CC4)N2C1=O)c1cnc2ccc(CP(=O)(O)O)cc2c1 (stereo partly drawn) [Compound 895, ((3-(((3S,6S,10aS)-5-oxo-3-(6-phenyl-4-azaspiro[2.4]heptane-4-carbonyl)decahydropyrrolo[1,2-a]azocin-6-yl)carbamoyl)quinolin-6-yl)methyl) phosphonic acid] |
| 100 to 1000 nM | 3 to 30 µM | CC(c1ccc2sc(C(=O)N[C@H]3CCC[C@H]4CC[C@@H](C(=O)N5CC(c6cccnc6)C5)N4C3=O)cc2c1)P(=O)(O)O (stereo partly drawn) [Compound 896, (1-(2-(((3S,6S,9aS)-5-oxo-3-(3-(pyridin-3-yl)azetidine-1-carbonyl)octahydro-1H-pyrrolo[1,2-a]azepin-6-yl)carbamoyl)benzo [b]thiophen-5-yl)ethyl) phosphonic acid] |
| 1000 to 10000 nM | ≤ 0.3 µM | Cn1ccc(C2CN(C(=O)[C@@H]3CC[C@@H]4CCCC[C@H](NC(=O)c5cc6cc(C(F)P(=O)(O)O)ccc6s5)C(=O)N43)C3(CC3)C2)cc1=O (stereo partly drawn) [Compound 898, (fluoro(2-(((3S,6S,10aS)-3-(6-(1-methyl-2-oxo-1,2-dihydropyridin-4-yl)-4-azaspiro[2.4]heptane-4-carbonyl)-5-oxodecahydropyrrolo [1,2-a]azocin-6-yl)carbamoyl)benzo [b]thiophen-5-yl)methyl) phosphonic acid] |
| 1000 to 10000 nM | 0.3 to 3 µM | Cn1ccc(C2CCN(C(=O)[C@@H]3CC[C@@H]4CCCC[C@H](NC(=O)c5ccc6ccc(C(F)P(=O)(O)O)cc6c5)C(=O)N43)C2)cc1=O (stereo partly drawn) [Compound 899, (fluoro(7-(((3S,6S,10aS)-3-(3-(1-methyl-2-oxo-1,2-dihydropyridin-4-yl)pyrrolidine-1-carbonyl)-5-oxodecahydropyrrolo [1,2-a]azocin-6-yl)carbamoyl)naphthalen-2-yl)methyl) phosphonic acid] |
| 1000 to 10000 nM | ≤ 0.3 µM | O=C(N[C@H]1CCCC[C@H]2CC[C@@H](C(=O)N3C(=O)N(c4cccnc4)C(=O)C34CC4)N2C1=O)c1cc2cc(C(F)P(=O)(O)O)ccc2s1 (stereo partly drawn) [Compound 900, ((2-(((3S,6S,10aS)-3-(5,7-dioxo-6-(pyridin-3-yl)-4,6-diazaspiro[2.4]heptane-4-carbonyl)-5-oxodecahydropyrrolo [1,2-a]azocin-6-yl)carbamoyl)benzo [b]thiophen-5-yl)fluoromethyl) phosphonic acid] |
| 1000 to 10000 nM | 3 to 30 µM | Cn1ncc(C2CCN(C(=O)[C@@H]3CC[C@@H]4CCCC[C@H](NC(=O)c5ccc6ccc(C(F)P(=O)(O)O)cc6c5)C(=O)N43)C2)cc1=O (stereo partly drawn) [Compound 902, (fluoro(7-(((3S,6S,10aS)-3-(3-(1-methyl-6-oxo-1,6-dihydropyridazin-4-yl)pyrrolidine-1-carbonyl)-5-oxodecahydropyrrolo [1,2-a]azocin-6-yl)carbamoyl)naphthalen-2-yl)methyl) phosphonic acid] |
| 1000 to 10000 nM | 0.3 to 3 µM | Cn1ccc(C2(F)CCN(C(=O)[C@@H]3CC[C@@H]4CCCC[C@H](NC(=O)c5ccc6ccc(C(F)P(=O)(O)O)cc6c5)C(=O)N43)C2)cc1=O (stereo partly drawn) [Compound 903, (fluoro(7-(((3S,6S,10aS)-3-(3-fluoro-3-(1-methyl-2-oxo-1,2-dihydropyridin-4-yl)pyrrolidine-1-carbonyl)-5-oxodecahydropyrrolo [1,2-a]azocin-6-yl)carbamoyl)naphthalen-2-yl)methyl) phosphonic acid] |
| 1000 to 10000 nM | 0.3 to 3 µM | O=C(N[C@H]1CCC[C@H]2CC[C@@H](C(=O)N3CC(c4cccnc4)CC34CC4)N2C1=O)c1ccc2ccc(C(F)P(=O)(O)O)cc2c1 (stereo partly drawn) [Compound 904, (fluoro(7-(((3S,6S,9aS)-5-oxo-3-(6-(pyridin-3-yl)-4-azaspiro[2.4]heptane-4-carbonyl)octahydro-1H-pyrrolo[1,2-a]azepin-6-yl)carbamoyl)naphthalen-2-yl)methyl) phosphonic acid] |
| 1000 to 10000 nM | 0.3 to 3 µM | O=C(N[C@H]1CCCC[C@H]2CC[C@@H](C(=O)N3CCC(c4ccn(C5CC5)c(=O)c4)C3)N2C1=O)c1ccc2ccc(C(F)P(=O)(O)O)cc2c1 (stereo partly drawn) [Compound 906, ((7-(((3S,6S,10aS)-3-(3-(1-cyclopropyl-2-oxo-1,2-dihydropyridin-4-yl)pyrrolidine-1-carbonyl)-5-oxodecahydropyrrolo[1,2-a]azocin-6-yl)carbamoyl)naphthalen-2-yl)fluoromethyl) phosphonic acid] |
| 1000 to 10000 nM | ≤ 0.3 µM | O=C(N[C@H]1CCC[C@H]2CC[C@@H](C(=O)N3CC(c4cccnc4)CC34CC4)N2C1=O)c1cc2cc(C(F)P(=O)(O)O)ccc2s1 (stereo partly drawn) [Compound 907, (fluoro(2-(((3S,6S,9aS)-5-oxo-3-(6-(pyridin-3-yl)-4-azaspiro[2.4]heptane-4-carbonyl)octahydro-1H-pyrrolo[1,2-a]azepin-6-yl)carbamoyl)benzo [b]thiophen-5-yl)methyl) phosphonic acid] |
| 1000 to 10000 nM | ≤ 0.3 µM | O=C(N[C@H]1CCCC[C@H]2CC[C@@H](C(=O)N3CC(c4cccnc4)CC34CC4)N2C1=O)c1cc2cc(C(F)P(=O)(O)O)ccc2s1 (stereo partly drawn) [Compound 912, (fluoro(2-(((3S,6S,10aS)-5-oxo-3-(6-(pyridin-3-yl)-4-azaspiro[2.4]heptane-4-carbonyl)decahydropyrrolo[1,2-a]azocin-6-yl)carbamoyl)benzo [b]thiophen-5-yl)methyl) phosphonic acid] |
| 1000 to 10000 nM | 0.3 to 3 µM | Cn1ncc(C2CCN(C(=O)[C@@H]3CC[C@@H]4CCCC[C@H](NC(=O)c5cc6cc(C(F)P(=O)(O)O)ccc6s5)C(=O)N43)C2)cc1=O (stereo partly drawn) [Compound 913, (fluoro(2-(((3S,6S,10aS)-3-(3-(1-methyl-6-oxo-1,6-dihydropyridazin-4-yl)pyrrolidine-1-carbonyl)-5-oxodecahydropyrrolo [1,2-a]azocin-6-yl)carbamoyl)benzo [b]thiophen-5-yl)methyl) phosphonic acid] |
| 100 to 1000 nM | 0.3 to 3 µM | Cn1ccc(C2(O)CCN(C(=O)[C@@H]3CC[C@@H]4CCCC[C@H](NC(=O)c5cc6cc(C(F)P(=O)(O)O)ccc6s5)C(=O)N43)C2)cc1=O (stereo partly drawn) [Compound 914, (fluoro(2-(((3S,6S,10aS)-3-(3-hydroxy-3-(1-methyl-2-oxo-1,2-dihydropyridin-4-yl)pyrrolidine-1-carbonyl)-5-oxodecahydropyrrolo [1,2-a]azocin-6-yl)carbamoyl)benzo [b]thiophen-5-yl)methyl) phosphonic acid] |
| 1000 to 10000 nM | ≤ 0.3 µM | O=C(N[C@H]1CCC[C@H]2CC[C@@H](C(=O)N3C(=O)N(c4cccnc4)C(=O)C34CC4)N2C1=O)c1cc2cc([C@H](F)P(=O)(O)O)ccc2s1 [Compound 915, ((R)-(2-(((3S,6S,9aS)-3-(5,7-dioxo-6-(pyridin-3-yl)-4,6-diazaspiro[2.4]heptane-4-carbonyl)-5-oxooctahydro-1H-pyrrolo[1,2-a]azepin-6-yl)carbamoyl)benzo [b]thiophen-5-yl)fluoromethyl) phosphonic acid] |
| < 100 nM | 3 to 30 µM | N#Cc1cc(C2CN(C(=O)[C@@H]3CC[C@@H]4CCC[C@H](NC(=O)c5cc6cc(C(F)P(=O)(O)O)ccc6s5)C(=O)N43)C2)ccn1 (stereo partly drawn) [Compound 918, ((2-(((3S,6S,9aS)-3-(3-(2-cyanopyridin-4-yl)azetidine-1-carbonyl)-5-oxooctahydro-1H-pyrrolo[1,2-a]azepin-6-yl)carbamoyl)benzo [b]thiophen-5-yl)fluoromethyl) phosphonic acid] |
| 1000 to 10000 nM | 0.3 to 3 µM | N#C[C@H]1[C@H](c2ccccc2)CN(C(=O)[C@@H]2CC[C@@H]3CCC[C@H](NC(=O)c4cc5cc(CP(=O)(O)O)ccc5s4)C(=O)N32)C12CC2 [Compound 922, ((2-(((3S,6S,9aS)-3-((6R,7S)-7-cyano-6-phenyl-4-azaspiro[2.4]heptane-4-carbonyl)-5-oxooctahydro-1H-pyrrolo[1,2-a]azepin-6-yl)carbamoyl)benzo [b]thiophen-5-yl)methyl) phosphonic acid] |
